Measured values published in paper PMC9603946, “On the Sensitivity of the Virion Envelope to Lipid Peroxidation” (Microbiology Spectrum, 2022).
Values joined by “and” are separate entries in the source; they are usually repeats but may differ in a detail not shown here. Equal values may be shown once. Read-outs that look alike come from different tables or passages of the source. Marks after values point to notes of the source that are not given here.

Legend:
[1] = test system: HSV-1; experiment: HSV-1 virion infectivity (plaquing efficiency) on Vero cells after virion pretreatment; conditions: for EC50: Human alphaherpesvirus 1, Vero
Description: (§1) The inocula were removed, and the cells were washed and then incubated at 37°C in 5% CO2 until plaques were visible and well-resolved (about 2 days), at which time they were fixed and stained with crystal violet.
(§2) HSV-1 suspensions of 20,000 plaque PFU in 250 μL DMEM were mixed 1:1 with 2-fold serial dilutions of the general peroxidators and were incubated in a water bath for 2 h at 37°C. Next, treated virions were diluted 1:100 before being adsorbed onto cells for 1 h at 37°C. The inocula were removed, and the cells were washed twice with cold DMEM. Infected cells were overlaid with DMEM supplemented with 2% (Vero) or 1% (HFF) methylcellulose and 5% FBS and were incubated at 37°C until plaques were visible and well-resolved, typically in about 2 days. Cell monolayers were fixed and stained with 1% crystal violet in 17% methanol for 18 h at RT. The cells were washed, and the plaques were counted and normalized to those produced by the vehicle treated virions.
(§3) To test the effects of lipid soluble antioxidants on virions, 10 μM vitamin E loaded onto 1% carrier BSA in the dark for 4.5 h at RT was incubated with 10^6 HSV-1 virions for 3 h at 37°C. […] The treated virions were diluted 1:100 before infecting cells. […] The mix was incubated for 2 h at 37°C, diluted 1:100, and used to infect cells. The infectivity of an aliquot of treated virions was tested via a plaque assay.

[2] = test system: HSV-1; assay type: cell-based, HSV-1 KOS; conditions: for protective effect on infectivity in atmospheric O2: substance alone, without BSA carrier; for drop of viral titers: after 2 h of incubation in atmospheric O2 at 37°C with the substance
Description: To test other oxidative conditions, an HSV-1 suspension was incubated in atmospheric oxygen at 37°C in DMEM without serum. The virions were incubated with the previously used antioxidants (vitamin E-BSA and vitamin C), vitamin E without the carrier, the BSA carrier alone, vitamin C-BSA, cholesterol (another compound with a conjugated ring and alkyl chains but with limited antioxidant activity), or cholesterol-BSA. A plaquing efficiency assay was then performed with the treated virions.
A time course plaquing efficiency assay was performed with HSV-1 incubated under atmospheric oxidative conditions. Virions (3 × 10^5 PFU) were incubated with vitamin E, vitamin E-BSA, cholesterol, cholesterol-BSA, vitamin C (10 μM final concentration), or the carrier BSA (0.5% final concentration) for 3 h at 37°C in a water bath with atmospheric air (atmospheric O2). Aliquots from each condition were taken every hour and diluted 1:200 to perform plaquing efficiency assays as previously described on the Vero cells.

[3] = test system: Vero cells; experiment: Vero cell lipid peroxidation probed with C11-Bodipy; assay type: cell-based, African green monkey; conditions: C11-Bodipy (Fig. 8)
Description: (§4) The effects of peroxidators have been commonly evaluated against purified lipids and liposomes as a proxy, but they have not been evaluated against virions ([50], [53][–][55]). We instead directly evaluated the extent of virion lipid peroxidation.
To evaluate Vero cell lipoperoxidation with C11-Bodipy, 7.5 × 10^3 cells were seeded into each well of 96-well plates and incubated for 18 h at 37°C in 5% CO2 before preloading them with 1 μM C11-Bodipy for 30 min at 37°C. […] Two hours later, the cells were washed twice and lysed with DMSO:isopropanol. Fluorescence was evaluated in a TECAN Infinite M200 Pro at 550 nm excitation and 580 to 630 nm emission with the reading peak at 600 nm.
(§5) To evaluate the effects of a lipid soluble antioxidant, cells or virions were preloaded with vitamin E-BSA for 3 h at 37°C. Vitamin E-BSA containing medium was removed, and the cells were washed twice with DMEM. Liperfluo (20 or 10 μM for cells or virions, respectively) or C11-Bodipy (1 μM for cells or 0.1 mol% for virions) were preloaded into the cells or virions for 30 min at 37°C.
(§6) To evaluate the effects of water soluble antioxidants, liperfluo (20 μM for cells or 10 μM for virions) or C11-Bodipy (1 μM for cells or 0.1 mol% for virions) were preloaded into the cells or virions for 30 min at 37°C. […] Fluorescence was evaluated in a TECAN Infinite M200 Pro at 515 nm excitation and 545 nm emission for liperfluo or at 550 nm excitation and 580 to 630 nm emission for C11-Bodipy.

[4] = test system: Vero cells; experiment: Vero cell lipid peroxidation probed with liperfluo; assay type: cell-based, African green monkey; conditions: for EC50: Chlorocebus sabaeus, Vero, Liperfluo probe, read-out: CP50 (the source's name)
Description: as §4
To evaluate cell lipid peroxidation using liperfluo, 7.5 × 10^3 Vero cells were seeded into each well of 96-well plates and incubated for 18 h at 37°C in 5% CO2. […] Two hours later, the cells were washed twice, and the fluorescence was evaluated in a TECAN Infinite M200 Pro at 515 nm excitation and 545 nm emission.
as §5, §6

[5] = test system: HSV-1 virions; experiment: microbe, parasite or virus in culture; set-up: species or system HSV-1 KOS; conditions: virions, at higher AAPH concentrations
Description: as §4
To evaluate virion peroxidation using liperfluo, 50 μL DMEM that contained 5 × 10^6 PFU of HSV-1 was added to 96-well plates. Virions were then preloaded with 10 μM liperfluo for 20 min at 37°C. […] Fluorescence was evaluated in a TECAN Infinite M200 Pro at 515 nm excitation and 545 nm emission. Medium containing no virus was used as blank.
as §5, §6

[6] = test system: HSV-1; experiment: HSV-1 virion infectivity (plaquing efficiency) on HFF cells after virion pretreatment; conditions: for EC50: Human alphaherpesvirus 1, HFF
Description: as §1, §2, §3

[7] = HFF cell viability after 2 h exposure to lipoperoxidators (CellTiter-Glo); conditions: human, HFF cells
Description: (§7) The cells were washed twice with warm DMEM before a 100 μL lipoperoxidator solution was transferred with a multichannel pipette from the plate containing the drug dilutions in technical triplicates. The cells were incubated with peroxidators for 2 h at 37°C. Then, the medium was removed, and the cells were washed twice with DMEM at 37°C. The plates were cooled down to RT, and the medium was removed. Then, 50 μL phenol red free DMEM and 50 μL CellTiter-glo Luminiscent Cell Viability Assay (Promega, G7571/2/3) were added and mixed in an orbital shaker for 2 min. Afterwards, 80 μL of the mix was transferred onto white 96-well plates and incubated for 10 min at RT for signal stabilization. The luminescence was read in the Glomax Multidetection System (Promega) with an integration time of 0.5 s.
(§8) The means of the technical triplicates were normalized to the means of the vehicle controls, analyzed via nonlinear regression dose responses, and graphed using GraphPad Prism 9.0. Three or four independent biological replicates were performed for each treatment (n = 3 or 4).
(§9) To evaluate the effects of lipid soluble antioxidants, 10 μM vitamin E was loaded onto carrier 1% BSA in the dark for 4.5 h at RT. The cells were washed twice with DMEM at 37°C and preloaded with 100 μL of 10 μM vitamin E in BSA carrier for 3 h at 37°C. The cells were washed twice again before the addition of any lipoperoxidators. Peroxidators were then added to the cells at working concentrations and incubated for 2 h at 37°C. The peroxidation solution was then removed, and the cells were washed twice with DMEM before analyzing viability. To evaluate the effects of a water soluble antioxidant, the cells were treated with 10 μM vitamin C (final concentration) simultaneously with the lipoperoxidators.

[8] = test system: HFF cells; experiment: as above; conditions: HFF
Description: as §7, §8, §9

[9] = Vero cell viability after 2 h exposure to lipoperoxidators (CellTiter-Glo); conditions: African green monkey, Vero cells, CC50, Vero
Description: as §7, §8, §9

[10] = test system: Vero cells; experiment: as above; conditions: Vero
Description: as §7, §8, §9

[11] = test system: HSV-1 virions; experiment: HSV-1 virion lipid peroxidation probed with C11-Bodipy; set-up: species or system HSV-1 KOS; conditions: C11-Bodipy (Fig. 8)
Description: as §4
To evaluate virion lipoperoxidation with C11-Bodipy, 50 μL DMEM containing 5 × 10^6 PFU of HSV-1 was added into each well of 96-well plates. Virions were then preloaded with 0.1 mol % of C11-Bodipy for 30 min at 37°C. […] Fluorescence was evaluated in a TECAN Infinite M200 Pro at 550 nm excitation and 580 to 630 nm emission with the reading peak at 600 nm.
as §5, §6

[12] = test system: enveloped viruses; conditions: cited from earlier work
[13] = many months of exposure to light at room temperature; no reference given; cited from earlier work

Cc1c(C)c2c(c(C)c1O)CC[C@@](C)(CCC[C@H](C)CCC[C@H](C)CCCC(C)C)O2 [vitamin E, alpha tocopherol]
protection of HSV-1 infectivity against the water soluble peroxidator ([1]; Vero and HFF (Fig. 5B and F), vitamin E preloading): did not protect | protective effect on infectivity in atmospheric O2 [2]: no protective effects

O=C1O[C@H]([C@@H](O)CO)C(O)=C1O [vitamin C, L-ascorbic acid]
drop of viral titers [2]: about 30%

CC(C)(N=NC(C)(C)C(=N)N)C(=N)N.Cl.Cl [AAPH, 2,2′-azobis(2-methylpropionamidine) dihydrochloride]
EC50 ([1]; 2 h, Vero, no antioxidant, virions treated 2 h at 37°C): 20.8 mM | EC50 ([1]; Vero, virions preloaded with vitamin E (10 μM, BSA carrier)): 31 mM | concentration of maximal inhibition of virion infectivity ([1]; Vero): 100 mM | concentration giving a loss of infectivity of about 30% ([1]; Vero, 2 h at 37°C): 25 mM | SI, CC50/EC50 ([1]; Vero, vitamin C): 0.9 | minimum inhibitory concentration (MIC) that decreased infectivity in the presence of vitamin C ([1]; Vero, vitamin C): 50 mM | SI, CC50/EC50 ([1]; Vero, vitamin E): 4.4 | lowest concentration that decreased virion infectivity in the presence of BSA ([1]; Vero, with BSA): 50 mM | lowest effective concentration on infectivity in the presence of the antioxidants ([1]; Vero, with antioxidants): 25 mM | lowest concentration affecting cell lipid peroxidation [3]: 50 to 100 mM | EC50 ([4]; no antioxidant): 89.2 mM | EC50 ([4]; vitamin C): 90.7 mM | EC50 ([4]; vitamin E): 90.7 mM | level of lipoperoxidation detected by liperfluo ([4]; cells, at higher AAPH concentrations): < 2 AU | level of lipoperoxidation detected by liperfluo [5]: < 2 AU | concentration giving a loss of infectivity of about 30% ([6]; 2 h at 37°C): 12.5 mM | EC50 ([6]; 2 h, no antioxidant, virions treated 2 h at 37°C): 24.7 mM | EC50 ([6]; virions preloaded with vitamin E (10 μM, BSA carrier)): 31.4 mM | SI, CC50/EC50 ([6]; vitamin C): 1.7 | minimum inhibitory concentration (MIC) that decreased infectivity in the presence of vitamin C ([6]; vitamin C): 100 mM | SI, CC50/EC50 ([6]; vitamin E): 3.1 | CC50 at 2 h [7]: 96.7 mM | PI, CC50 (antioxidant)/CC50 ([8]; vitamin C): 1.1 | PI, CC50 (antioxidant)/CC50 ([8]; vitamin E): 0.5 ^* | CC50 at 2 h ([9]; no antioxidant, 2 h at 37°C): 69 mM | CC50 at 2 h ([9]; with vitamin C (10 μM)): 88.4 mM | concentration of maximal inhibition of cell viability [10]: 400000 µM | lowest concentration that reduced cell viability [10]: 12.5 mM and 25 mM | PI, CC50 (antioxidant)/CC50 ([10]; vitamin C): 1.3 | PI, CC50 (antioxidant)/CC50 ([10]; vitamin E): 2.0 ^* | lowest concentration affecting virion peroxidation [11]: 200 mM

bovine serum albumin [BSA]
drop of viral titers [2]: about 30% | protection of virion infectivity ([2]; after 3 h of incubation in atmospheric O2): about 30%

C=CCN1C(=O)/C(=C/c2ccc(-c3ccccc3)o2)SC1=S [LJ001]
fold over antiviral concentrations at which not cytotoxic [12]: ≥ 100 fold

O=c1[nH]c(=O)n([C@@H]2O[C@H](CO)[C@@H](O)[C@@H]2O)cc1C#Cc1ccc2c3cccc4cccc(c5cccc1c52)c43 [aUY11, 5-(Perylen-3-yl) ethynyl-arabino-uridine]
inactivation by light exposure [13]: not inactivated

CC(C)CCC[C@@H](C)[C@H]1CC[C@H]2[C@@H]3CC=C4C[C@@H](O)CC[C@]4(C)[C@H]3CC[C@]12C [cholesterol]
protective effect on infectivity in atmospheric O2 [2]: no protective effects
